# Measured values published in US10316017B2, “COT modulators and methods of use thereof” (Gilead Sciences, Inc., priority 2015, dated 2019).
# Experiments:
# [1] = biological target: T1, human Cot catalytic domain (30-397 amino acids) (Homo sapiens, UniProt P41279); assay: High Throughput Cot Biochemical Assay (KinEASE TR-FRET); conditions: Cot biochemical HTRF (KinEASE TR-FRET) assay; read-out: IC50 HTRF
# T1 construct: Purified recombinant human Cot catalytic domain (30-397 amino acids) was purchased from Cama Biosciences; purchased Cama Biosciences (so in the source)
# T1 sequence (P41279 30-397): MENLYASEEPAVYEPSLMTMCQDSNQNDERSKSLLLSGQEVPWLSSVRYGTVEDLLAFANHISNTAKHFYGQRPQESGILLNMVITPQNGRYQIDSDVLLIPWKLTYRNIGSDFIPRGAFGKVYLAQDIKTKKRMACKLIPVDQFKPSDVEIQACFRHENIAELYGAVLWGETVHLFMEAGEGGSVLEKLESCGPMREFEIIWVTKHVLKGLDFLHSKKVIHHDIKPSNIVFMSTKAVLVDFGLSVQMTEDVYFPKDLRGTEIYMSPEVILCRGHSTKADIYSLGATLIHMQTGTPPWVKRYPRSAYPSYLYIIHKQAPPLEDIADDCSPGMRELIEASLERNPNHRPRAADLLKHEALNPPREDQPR
# Method in brief: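 First, purified human Cot (aa 30-397) at 5 nM phosphorylates an XL665-labeled STK3 peptide (1 μM) at 400 μM ATP, pH 7.0, 0.1% DMSO. Then a europium-conjugated phospho-specific antibody binds the product, giving the TR-FRET signal.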
# [2] = test system: TNFα production in LPS-stimulated human monocytes; assay: Cot Monocyte TNFα Cell Based Assay; conditions: Homo sapiens, Monocyte, TNFα in LPS-stimulated human monocytes; read-out: EC50 TNF
# Method in brief: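 5,000 cells/well; cmpd 1 h, 37 °C, 0.5% DMSO final; LPS 50 pg/ml, 4 h, 37 °C; media TNFα by HTRF sandwich (cryptate/XL665), RT overnight; % control vs unstimulated/stimulated wells.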
Compound,IC50 [1],EC50 [2]
"CC1CC(Nc2c(C#N)cnc3c(Cl)cc(N[C@@H](c4ccccc4)c4cn(C5CCN(C(C)(C)C)CC5)nn4)cc23)CC(C)O1 (stereo partly drawn) [Example 509, 6-(((S)-(1-(1-(tert-butyl)piperidin-4-yl)-1H-1,2,3-triazol-4-yl)(phenyl)methyl)amino)-8-chloro-4-((2,6-dimethyltetrahydro-2H-pyran-4-yl)amino) quinoline-3-carbonitrile]",0.206 µM,2.99 µM
"CC(=O)N(C)c1cccc([C@H](Nc2cc(Cl)c3ncc(C#N)c(Nc4cnc(F)c(F)c4)c3c2)c2cn(CC(F)(F)F)nn2)c1 [Example 510, (S)-N-(3-(((8-chloro-3-cyano-4-((5,6-difluoropyridin-3-yl)amino)quinolin-6-yl)amino)(1-(2,2,2-trifluoroethyl)-1H-1,2,3-triazol-4-yl)methyl)phenyl)-N-methylacetamide]",0.005 µM,0.321 µM
"N#Cc1cnc2c(Cl)cc(N[C@@H](c3ccc(F)cc3)c3cn(C4COC4)nn3)cc2c1Nc1cnc(F)c(F)c1 [Example 511, (S)-8-chloro-4-((5,6-difluoropyridin-3-yl)amino)-6-(((4-fluorophenyl)(1-(oxetan-3-yl)-1H-1,2,3-triazol-4-yl)methyl)amino)quinoline-3-carbonitrile]",0.017 µM,0.701 µM
"N#Cc1cnc2c(Cl)cc(N[C@@H](c3ccc(F)cc3)c3cn(CC(F)(F)F)nn3)cc2c1Nc1cnc(F)c(F)c1 [Example 512, (S)-8-chloro-4-((5,6-difluoropyridin-3-yl)amino)-6-(((4-fluorophenyl)(1-(2,2,2-trifluoroethyl)-1H-1,2,3-triazol-4-yl)methyl)amino)quinoline-3-carbonitrile]",0.085 µM,1.1 µM
"N#Cc1cnc2c(Cl)cc(N[C@@H](c3ccc(F)cc3)c3c[nH]nn3)cc2c1Nc1cnc(F)c(F)c1 [Example 513, (S)-8-chloro-4-((5,6-difluoropyridin-3-yl)amino)-6-(((4-fluorophenyl)(1H-1,2,3-triazol-4-yl)methyl)amino) quinoline-3-carbonitrile]",0.022 µM,1.33 µM
"CCN1CC[C@@H](n2cc([C@@H](Nc3cc(Cl)c4ncc(C#N)c(Nc5ccc(F)c(Cl)c5)c4c3)c3ccccc3)nn2)[C@H](O)C1 [Example 514, 8-chloro-4-((3-chloro-4-fluorophenyl)amino)-6-(((S)-(1-((3R,4R)-1-ethyl-3-hydroxypiperidin-4-yl)-1H-1,2,3-triazol-4-yl)(phenyl)methyl)amino) quinoline-3-carbonitrile]",0.002 µM,0.062 µM
"N#Cc1cnc2c(Cl)cc(N[C@@H](c3ccccc3)c3cn([C@@H]4CCNC[C@H]4O)nn3)cc2c1Nc1ccc(F)c(Cl)c1 [Example 515, 8-chloro-4-((3-chloro-4-fluorophenyl)amino)-6-(((S)-(1-((3R,4R)-3-hydroxypiperidin-4-yl)-1H-1,2,3-triazol-4-yl)(phenyl)methyl)amino) quinoline-3-carbonitrile]",0.001 µM,0.324 µM
CCN1CCC(n2cc([C@@H](Nc3cc(Cl)c4ncc(C#N)c(Nc5cccc(Cl)c5)c4c3)c3ccccc3)nn2)[C@H](O)C1 (stereo partly shown) [Example 516],0.004 µM,0.092 µM
"N#Cc1cnc2c(Cl)cc(N[C@@H](c3ccccc3)c3cn([C@@H]4CCN(C5COC5)C[C@H]4O)nn3)cc2c1Nc1cccc(Cl)c1 [Example 517, 8-chloro-4-((3-chlorophenyl)amino)-6-(((S)-(1-((3R,4R)-3-hydroxy-1-(oxetan-3-yl)piperidin-4-yl)-1H-1,2,3-triazol-4-yl)(phenyl)methyl)amino) quinoline-3-carbonitrile]",0.01 µM,0.255 µM
"N#Cc1cnc2c(Cl)cc(N[C@@H](c3cccc(CN4CC(F)(F)C4)c3)c3c[nH]nn3)cc2c1Nc1ccc(Cl)c(Cl)c1F [Example 518, (S)-8-chloro-4-((3,4-dichloro-2-fluorophenyl)amino)-6-(((3-((3,3-difluoroazetidin-1-yl)methyl)phenyl)(1H-1,2,3-triazol-4-yl)methyl)amino) quinoline-3-carbonitrile]",0.052 µM,0.57 µM
"N#Cc1cnc2c(Cl)cc(NC(c3ccccc3)c3nn[nH]c3CN3CCOCC3)cc2c1Nc1ccc(F)c(Cl)c1 (stereo not shown) [Example 519, 8-chloro-4-((3-chloro-4-fluorophenyl)amino)-6-(((5-(morpholinomethyl)-1H-1,2,3-triazol-4-yl)(phenyl)methyl)amino) quinoline-3-carbonitrile]",0.301 µM,3.15 µM
"CC(C)(C)N1CCC(n2cc([C@@H](Nc3cc(Cl)c4ncc(C#N)c(NS(=O)(=O)c5ccccc5)c4c3)c3ccccc3)nn2)CC1 [Example 520, (S)-N-(6-(((1-(1-(tert-butyl)piperidin-4-yl)-1H-1,2,3-triazol-4-yl)(phenyl)methyl)amino)-8-chloro-3-cyanoquinolin-4-yl)benzenesulfonamide]",> 10 µM,> 10 µM
"CC(C)(C)N1CCC(n2cc([C@@H](Nc3cc(Cl)c4ncc(C#N)c(Nc5cnc(Cl)c(F)c5)c4c3)c3ccccc3)nn2)CC1 [Example 521, (S)-6-(((1-(1-(tert-butyl)piperidin-4-yl)-1H-1,2,3-triazol-4-yl)(phenyl)methyl)amino)-8-chloro-4-((6-chloro-5-fluoropyridin-3-yl)amino)quinoline-3-carbonitrile]",0.041 µM,0.934 µM
"C[C@H](Nc1c(C#N)cnc2c(Cl)cc(N[C@@H](c3ccccc3)c3cn(C4CCN(C(C)(C)C)CC4)nn3)cc12)C1CCOCC1 [Example 522, 6-(((S)-(1-(1-(tert-butyl)piperidin-4-yl)-1H-1,2,3-triazol-4-yl)(phenyl)methyl)amino)-8-chloro-4-(((S)-1-(tetrahydro-2H-pyran-4-yl)ethyl)amino)quinoline-3-carbonitrile]",0.786 µM,9.72 µM
"C[C@@H](Nc1c(C#N)cnc2c(Cl)cc(N[C@@H](c3ccccc3)c3cn(C4CCN(C(C)(C)C)CC4)nn3)cc12)C1CCCCC1 [Example 523, 6-(((S)-(1-(1-(tert-butyl)piperidin-4-yl)-1H-1,2,3-triazol-4-yl)(phenyl)methyl)amino)-8-chloro-4-(((R)-1-cyclohexylethyl)amino) quinoline-3-carbonitrile]",0.3 µM,4.88 µM
"C[C@@H](Nc1c(C#N)cnc2c(Cl)cc(N[C@@H](c3ccccc3)c3cn(C4CCN(C(C)(C)C)CC4)nn3)cc12)C1CCOCC1 [Example 524, 6-(((S)-(1-(1-(tert-butyl)piperidin-4-yl)-1H-1,2,3-triazol-4-yl)(phenyl)methyl)amino)-8-chloro-4-(((R)-1-(tetrahydro-2H-pyran-4-yl)ethyl)amino) quinoline-3-carbonitrile]",0.787 µM,> 10 µM
"CC(C)(C)N1CCC(n2cc([C@@H](Nc3cc(Cl)c4ncc(C#N)c(Nc5ccc(F)c(OC(F)(F)F)c5)c4c3)c3ccccc3)nn2)CC1 [Example 525, (S)-6-(((1-(1-(tert-butyl)piperidin-4-yl)-1H-1,2,3-triazol-4-yl)(phenyl)methyl)amino)-8-chloro-4-((4-fluoro-3-(trifluoromethoxy)phenyl)amino)quinoline-3-carbonitrile]",0.726 µM,4.26 µM
